Source: patent US9157074B2, “Beta-amylase, gene coding therefor and manufacturing method thereof” (Amano Enzyme Inc., priority 2008, dated 2015)
Entries after “also recorded” stand apart in the source; their conditions may differ.

B1: β-amylase: purified β-amylase from Bacillus flexus APC9451, amino acid sequence SEQ ID NO: 7; final HiLoad 16/60 Superdex200 stage (protein, listed as Bacillus flexus)
chain: MYKPIKKFASLIVLLSFVAAFILGPTNSQAAVNGQSFNSNYKTYLMAPLKKVTEFTTWEAFENDLRKAKQNGFYAVTVDFWWGDMEKNGDQQFDFSYAQRFAQAARNAGIKMVPIISTHQCGGNVGDDCNTPLPSWIWNTKTDDSLYFKSETGTVNKETVNPLATDVITKQYGELYTAFAQALAPYKDVIPKVYLSGGPAGELRYPSYTAADGTGYPSRGKFQAYTDFAKSKFQMWAVNKYGSLAGVNQAWGLSLTSTSQILPPSDGNQFLKDGYNTNYGKDFLEWYQGVLQDHAKRIGALAHQAFDPVFNVPVGAKIAGIHWQYNNPTMPHAAEKPAGYNNYSTLLDSFKTAKLDLTFTCLEMVDSGTYPEYSMPKTLVKEVASLANAKGIVLNGENALSIGSEEQYKRAAEMTFNYNFAGFTLLRFYDVINNSTRMSQFNQHLNIKPVAQTMVVKNAPTSSGESVYIVGDRPELGQWDTIAYPIKLSYNSTYGDWRGTVNFPADRSVQFKAIIKRSDGSLKSWQPTQQYWNVPGTPTTYTNNW

Tests used:
β-amylase [1] = test: Effect of metal ion and inhibitor on β-amylase activity; type: biochemical, Bacillus flexus; settings: 30° C., 30 minutes; for Relative activity: 1 mM metal ion or inhibitor, pH 5.0, not added = 100%; for effect on activity: 1 mM
Protocol: (§1) The activity of β-amylase was measured as follows. To 0.5 ml of 0.1M phosphate-HCl buffer solution (pH 5.0) containing 1% soluble starch and 10 mM calcium acetate, 0.5 ml of enzyme solution was added. The mixture was incubated at 37° C. for 30 minutes. Then, 2.5 ml of DNS solution (0.2% DNS, 80 mM NaOH, 0.2 M potassium sodium tartrate tetrahydrate) was added to the mixture so as to stop the reaction. After the reaction was stopped, the reaction mixture was boiled for five minutes, the absorbance was measured at the wavelength of 530 nm. The enzyme amount when the absorbance measured at the wavelength of 530 nm is 1 is defined as one unit.
To β-amylase in 0.1 M acetic acid-hydrochloric acid buffer solution (pH 5.0) containing 10 mM calcium acetate, 1 mM of various metal ions or inhibitor were added, respectively, treated at 30° C. for 30 minutes, and then the activity was measured by the above-mentioned β-amylase activity. The values were shown as the relative activity when the metal ion and inhibitor were not added is defined as 100%. The activity was inhibited by Cu ion, iodine acetic acid, PCMB, and SDS.

β-amylase [2] = test: Substrate specificity of β-amylase; type: biochemical, Bacillus flexus; settings: for Relative activity (%): activity with respect to soluble starch = 100%, oligosaccharides 0.5%, 0.1 u/ml enzyme, 37° C., 30 minutes, maltose by HPLC; for substrate specificity (words): relative to soluble starch = 100%
Protocol: as §1
The β-amylase activity with respect to each substrate was examined. The values are shown as the relative activity when the activity with respect to soluble starch is defined as 100%. As to oligosaccharides, the production amount of maltose was examined by the below-mentioned quantification amount of maltose. After 0.1 u/ml enzyme was reacted to 0.5% of each maltooligosaccharide at 37° C. for 30 minutes, quantification of maltose was carried out by HPLC (Aminex carbohydrate HPX-42A, BIO-RAD). A production amount of maltose when the substrate is soluble starch is defined as 100%, the relative activity with respect to each maltooligosaccharide was calculated from the production amount of maltose.
The values were shown as the relative activity when a production amount of maltose with respect to soluble starch is defined as 100%.

[3] = Thermostability (remaining activity after heat treatment); type: physicochemical
Protocol: as §1
The enzyme solution (20 u/ml) was subjected to heat treatment in 0.1 M acetic acid-hydrochloric acid buffer solution (pH 5.0) containing 10 mM calcium acetate at each temperature of 37° C., 50° C., 55° C., 60° C., 65° C. and 70° C. for 10 minutes, and then the remaining activity was measured by the above-mentioned β-amylase activity measurement method. The values are shown as the remaining activity when the remaining activity with no heat treatment is defined as 100%. […] (FIG. 3).

[4] = Optimum reaction temperature of β-amylase; type: biochemical; settings: pH 5.0, reaction temperatures 25 to 70° C.
Protocol: as §1
According to the above-mentioned β-amylase activity measurement method, reaction was carried out at the reaction temperatures of 25° C., 37° C., 50° C., 55° C., 60° C., 65° C., and 70° C. […] The optimum reaction temperature was around 55° C. (FIG. 1).

[5] = Isoelectric point by isoelectric point precipitation using Ampholine; type: physicochemical; settings: 600V, 4° C., 48 hours
Protocol: When the isoelectric point of the present enzyme was measured by isoelectric point precipitation using Ampholine (electrification at 600V, at 4° C., for 48 hours), it was 9.7.

pH stability = type: physicochemical; settings: pH 4 to 9, 30° C., three hours
Protocol: as §1
β-amylase was treated in each of the buffer solutions (citric acid buffer: pH2, pH3, and pH4, Britton-Robinson buffer: pH4, pH5, pH6, pH7, pH8, pH9, pH10, and pH11) at 30° C. for three house, and then the activity was measured by the above-mentioned β-amylase activity measurement method. […] The […] was 4 to 9 (FIG. 4).

[6] = β-amylase specific activity at each purification stage; type: biochemical
Protocol: as §1
Bacillus flexus APC9451 was cultured with shaking at 30° C. for three days by using a liquid medium having the compositions shown in Table 1. The obtained culture supernatant solution was four-times concentrated by using an UF membrane (AIP-0013, Asahi Kasei Corporation), and then ammonium sulfate was added thereto so as to obtain 60% saturation concentration. The precipitate fraction was dissolved again in 20 mM acetic acid buffer solution (pH 5.5). Then, to the mixture solution, ammonium sulfate was added so as to obtain 20% saturation concentration. […]

[7] = Optimum reaction pH of β-amylase; type: biochemical; settings: 1% soluble starch, 37° C., 10 minutes; citric acid buffer pH2-4, Britton-Robinson buffer pH4-11
Protocol: For the substrate, 1% soluble starch was used, and the measurement was carried out in each buffer solution (citric acid buffer: pH2, pH3, and pH4, Britton-Robinson buffer: pH4, pH5, pH6, pH7, pH8, pH9, pH10, and pH11) at 37° C. for 10 minutes. […] The optimum reaction pH was about 8.0 (FIG. 2).

Row | Molecule | Relative activity (β-amylase [1]) [%] | Relative activity (%) (β-amylase [2]) | other results
1 | [Ca+2] [Ca^2+] | 130 |  | 
2 | [Cu+2] [Cu^2+] | 46 |  | effect on activity (β-amylase [1]): inhibited
3 | [Fe+2] [Fe^2+] | 105 |  | Relative activity (β-amylase [1]; listed as Fe^3+): 113%
4 | [K+] [K^+] | 96 |  | 
5 | OC[C@H]1O[C@H](O[C@H]2[C@H](O)[C@@H](O)[C@@H](O[C@H]3[C@H](O)[C@@H](O)[C@@H](O[C@H]4[C@H](O)[C@@H](O)C(O)O[C@@H]4CO)O[C@@H]3CO)O[C@@H]2CO)[C@H](O)[C@@H](O)[C@@H]1O (stereo partly shown) [Maltotetraose] |  | 75 | 
6 | [Mg+2] [Mg^2+] | 103 |  | 
7 | [Mn+2] [Mn^2+] | 222 |  | 
8 | CCN1C(=O)C=CC1=O [N-ethylmaleimide] | 93 |  | 
9 | [Na+] [Na^+] | 88 |  | 
10 | O=C(O)c1cc[c]([Hg][Cl])cc1 [PCMB] | 25 |  | effect on activity (β-amylase [1]): inhibited
11 | CCCCCCCCCCCCOS(=O)(=O)[O-].[Na+] [SDS] | 37 |  | effect on activity (β-amylase [1]): inhibited
12 | [Zn+2] [Zn^2+] | 96 |  | 
13 | O=C(O)CI [monoiodoacetic acid] | 14 |  | effect on activity (β-amylase [1]): inhibited
14 | OC[C@H]1O[C@@H]2O[C@H]3[C@H](O)[C@@H](O)[C@@H](O[C@H]4[C@H](O)[C@@H](O)[C@@H](O[C@H]5[C@H](O)[C@@H](O)[C@@H](O[C@H]6[C@H](O)[C@@H](O)[C@@H](O[C@H]7[C@H](O)[C@@H](O)[C@@H](O[C@H]1[C@H](O)[C@H]2O)O[C@@H]7CO)O[C@@H]6CO)O[C@@H]5CO)O[C@@H]4CO)O[C@@H]3CO [α-cyclodextrin] |  | 0 | 
15 | OC[C@H]1O[C@@H]2O[C@H]3[C@H](O)[C@@H](O)[C@@H](O[C@H]4[C@H](O)[C@@H](O)[C@@H](O[C@H]5[C@H](O)[C@@H](O)[C@@H](O[C@H]6[C@H](O)[C@@H](O)[C@@H](O[C@H]7[C@H](O)[C@@H](O)[C@@H](O[C@H]8[C@H](O)[C@@H](O)[C@@H](O[C@H]1[C@H](O)[C@H]2O)O[C@@H]8CO)O[C@@H]7CO)O[C@@H]6CO)O[C@@H]5CO)O[C@@H]4CO)O[C@@H]3CO [β-cyclodextrin] |  | 1.4 | 
16 | OC[C@H]1O[C@@H]2O[C@H]3[C@H](O)[C@@H](O)[C@@H](O[C@H]4[C@H](O)[C@@H](O)[C@@H](O[C@H]5[C@H](O)[C@@H](O)[C@@H](O[C@H]6[C@H](O)[C@@H](O)[C@@H](O[C@H]7[C@H](O)[C@@H](O)[C@@H](O[C@H]8[C@H](O)[C@@H](O)[C@@H](O[C@H]9[C@H](O)[C@@H](O)[C@@H](O[C@H]1[C@H](O)[C@H]2O)O[C@@H]9CO)O[C@@H]8CO)O[C@@H]7CO)O[C@@H]6CO)O[C@@H]5CO)O[C@@H]4CO)O[C@@H]3CO [γ-cyclodextrin-, γ-cyclodextrin] |  | 0.6 | 
17 | Maltoheptaose |  | 111 | 
18 | Maltohexaose |  | 131 | 
19 | Maltopentaose |  | 102 | 
20 | Maltotriose |  | 0 | substrate specificity (words) (β-amylase [2]): did not act; also recorded: does not substantially act
21 | cyclodextrin |  |  | substrate specificity (words) (β-amylase [2]): does not substantially act; substrate specificity (words) (β-amylase [2]; listed as Cyclodextrin): almost broken down
22 | B1 |  |  | remaining activity after heat treatment ([3]; 55° C., 10 minutes, 0.1 M acetic acid-hydrochloric acid buffer pH 5.0, 10 mM calcium acetate, no heat treatment = 100%): ≥ 90%; thermostability (temperature until which stable) ([3]; pH 5.0, 10 minutes): ≤ 55 °C; optimum reaction temperature [4]: around 55 °C; optimum reaction temperature ([4]; listed as the present enzyme): about 55 °C; isoelectric point [5]: 9.7; activity with respect to the maximum activity after treatment (pH stability): ≥ 70%; specific activity in the final stage as compared with that of the crude enzyme ([6]; final purification stage vs crude enzyme): 2270 times; Specific activity ([6]; purification stage of β-amylase from Bacillus flexus APC9451): 1569 u/mg; optimum reaction pH [7]: about 8.0
